Measured values as given in ChEMBL document CHEMBL4813950, “Comparing the efficacy and selectivity of Ck2 inhibitors. A phosphoproteomics approach” (Eur J Med Chem, 2021).
Activity calls are given as the source filed them. No cut-off for these calls is given here.

Legend:
[1] = target: Nucleoprotein TPR (Mus musculus) (UniProt F6ZDS4); assay: Inhibition of nucleoprotein TPR in mouse C2C12 cells assessed as reduction in phospho-sites occupancy at 4 uM after 5 hrs by SILAC based LC-MS/MS analysis relative to control; format: cell-based
[2] = target: Survival motor neuron protein (Mus musculus) (UniProt P97801); assay: Inhibition of survival motor neuron protein in mouse C2C12 cells assessed as reduction in phospho-sites occupancy at 4 uM after 5 hrs by SILAC based LC-MS/MS analysis relative to control; format: cell-based
[3] = target: Eukaryotic translation initiation factor 2 subunit 2 (Mus musculus) (UniProt Q99L45); assay: Inhibition of eukaryotic translation initiation factor 2 subunit 2 in mouse C2C12 cells assessed as reduction in phospho-sites occupancy at 4 uM after 5 hrs by SILAC based LC-MS/MS analysis relative to control; format: cell-based
[4] = target: UPF0690 protein C1orf52 homolog (Mus musculus) (UniProt Q9CWU4); assay: Inhibition of UPF0690 protein C1orf52 homolog in mouse C2C12 cells assessed as reduction in phospho-sites occupancy at 4 uM after 5 hrs by SILAC based LC-MS/MS analysis relative to control; format: cell-based
[5] = target: Dual E2 ubiquitin-conjugating enzyme/E3 ubiquitin-protein ligase BIRC6 (Mus musculus) (UniProt O88738); assay: Inhibition of Birc6 in mouse C2C12 cells assessed as reduction in phospho-sites occupancy at 4 uM after 5 hrs by SILAC based LC-MS/MS analysis relative to control; format: cell-based
[6] = target: DNA polymerase delta subunit 3 (Mus musculus) (UniProt Q9EQ28); assay: Inhibition of Pold3 in mouse C2C12 cells assessed as reduction in phospho-sites occupancy at 4 uM after 5 hrs by SILAC based LC-MS/MS analysis relative to control; format: cell-based
[7] = target: Serine/threonine-protein phosphatase 6 regulatory subunit 3 (Mus musculus) (UniProt Q922D4); assay: Inhibition of Ppp6r3 in mouse C2C12 cells assessed as reduction in phospho-sites occupancy at 4 uM after 5 hrs by SILAC based LC-MS/MS analysis relative to control; format: cell-based
[8] = target: Small ubiquitin-related modifier 1 (Mus musculus) (UniProt P63166); assay: Inhibition of Sumo1 in mouse C2C12 cells assessed as reduction in phospho-sites occupancy at 4 uM after 5 hrs by SILAC based LC-MS/MS analysis relative to control; format: cell-based
[9] = target: Autophagy-related protein 9A (Mus musculus) (UniProt Q68FE2); assay: Inhibition of Atg9a in mouse C2C12 cells assessed as reduction in phospho-sites occupancy at 4 uM after 5 hrs by SILAC based LC-MS/MS analysis relative to control; format: cell-based
[10] = target: tRNA (guanine(26)-N(2))-dimethyltransferase (Mus musculus) (UniProt Q3TX08); assay: Inhibition of Trmt1 in mouse C2C12 cells assessed as reduction in phospho-sites occupancy at 4 uM after 5 hrs by SILAC based LC-MS/MS analysis relative to control; format: cell-based
[11] = target: Centrosomal protein of 170 kDa (Mus musculus) (UniProt Q6A065); assay: Inhibition of Cep170 in mouse C2C12 cells assessed as reduction in phospho-sites occupancy at 4 uM after 5 hrs by SILAC based LC-MS/MS analysis relative to control; format: cell-based
[12] = target: Chaperone Ric-8A (Mus musculus) (UniProt Q3TIR3); assay: Inhibition of Ric8a in mouse C2C12 cells assessed as reduction in phospho-sites occupancy at 4 uM after 5 hrs by SILAC based LC-MS/MS analysis relative to control; format: cell-based
[13] = target: Enhancer of mRNA-decapping protein 4 (Mus musculus) (UniProt Q3UJB9); assay: Inhibition of Edc4 in mouse C2C12 cells assessed as reduction in phospho-sites occupancy at 4 uM after 5 hrs by SILAC based LC-MS/MS analysis relative to control; format: cell-based
[14] = target: Sequestosome-1 (Mus musculus) (UniProt Q64337); assay: Inhibition of Sequestosome-1 in mouse C2C12 cells assessed as reduction in phospho-sites occupancy at 4 uM after 5 hrs by SILAC based LC-MS/MS analysis relative to control; format: cell-based
[15] = target: LIM domain and actin-binding protein 1 (Mus musculus) (UniProt Q9ERG0); assay: Inhibition of Lima1 in mouse C2C12 cells assessed as reduction in phospho-sites occupancy at 4 uM after 5 hrs by SILAC based LC-MS/MS analysis relative to control; format: cell-based
[16] = target: Rho GTPase-activating protein 35 (Mus musculus) (UniProt Q91YM2); assay: Inhibition of Arhgap35 in mouse C2C12 cells assessed as reduction in phospho-sites occupancy at 4 uM after 5 hrs by SILAC based LC-MS/MS analysis relative to control; format: cell-based
[17] = target: Fermitin family homolog 2 (Mus musculus) (UniProt Q8CIB5); assay: Inhibition of Fermt2 in mouse C2C12 cells assessed as reduction in phospho-sites occupancy at 4 uM after 5 hrs by SILAC based LC-MS/MS analysis relative to control; format: cell-based
[18] = target: La-related protein 1 (Mus musculus) (UniProt Q6ZQ58); assay: Inhibition of Larp1 in mouse C2C12 cells assessed as reduction in phospho-sites occupancy at 4 uM after 5 hrs by SILAC based LC-MS/MS analysis relative to control; format: cell-based
[19] = target: 1-phosphatidylinositol 4,5-bisphosphate phosphodiesterase delta-3 (Mus musculus) (UniProt Q8K2J0); assay: Inhibition of Plcd3 in mouse C2C12 cells assessed as reduction in phospho-sites occupancy at 4 uM after 5 hrs by SILAC based LC-MS/MS analysis relative to control; format: cell-based
[20] = target: Importin subunit alpha-4 (Mus musculus) (UniProt O35344); assay: Inhibition of Kpna3 in mouse C2C12 cells assessed as reduction in phospho-sites occupancy at 4 uM after 5 hrs by SILAC based LC-MS/MS analysis relative to control; format: cell-based
[21] = target: Cyclin-dependent kinase 4 (Mus musculus) (UniProt P30285); assay: Inhibition of Cdk4 in mouse C2C12 cells assessed as reduction in phospho-sites occupancy at 4 uM after 5 hrs by SILAC based LC-MS/MS analysis relative to control; format: cell-based
[22] = target: WASH complex subunit 2 (Mus musculus) (UniProt Q6PGL7); assay: Inhibition of Washc2 in mouse C2C12 cells assessed as reduction in phospho-sites occupancy at 4 uM after 5 hrs by SILAC based LC-MS/MS analysis relative to control; format: cell-based
[23] = target: T1, Casein kinase 2 (Mus musculus) (UniProt Q60737+P67871+O54833+Q8CH19); assay: Inhibition of CK2 in mouse C2C12 cells assessed as reduction in Akt phosphorylation at S129 residues at 1 to 4 uM by Western blot analysis; format: cell-based; settings: dose 1-4 µM
[24] = target: T1, Casein kinase 2 (Mus musculus); assay: Inhibition of CK2 in mouse C2C12 cells assessed as reduction in CK2 substrates phosphorylation at 1 to 4 uM by Western blot analysis; format: cell-based; settings: dose 1-4 µM
[25] = system: Golgi-specific brefeldin A-resistance guanine nucleotide exchange factor 1 (Mus musculus); assay: Inhibition of Gbf1 in mouse C2C12 cells assessed as reduction in phospho-sites occupancy at 4 uM after 5 hrs by SILAC based LC-MS/MS analysis relative to control

For `COc1cc(/C=N/n2c(SC)nnc2-c2ccccc2)c(Br)cc1O`, the fold change (FC) [1] was 1.51, the fold change (FC) [2] was 1.52 and the fold change (FC) [3] was 1.6. For the same compound, the fold change (FC) [4] was 1.61, the fold change (FC) [5] was 1.62 and the fold change (FC) [6] was 1.66. For the same compound, the fold change (FC) [7] was 1.75, the fold change (FC) [8] was 1.75 and the fold change (FC) [9] was 1.8. It also gave a fold change (FC) [10] of 1.86, a fold change (FC) [11] of 1.86 and a fold change (FC) [12] of 1.93. For the same compound, the fold change (FC) [13] was 2.17, the fold change (FC) [14] was 2.35 and the fold change (FC) [15] was 2.39. It also gave a fold change (FC) [16] of 2.58, a fold change (FC) [17] of 3.05 and a fold change (FC) [18] of 3.25. It also gave a fold change (FC) [19] of 3.31, a fold change (FC) [20] of 3.44 and a fold change (FC) [21] of 3.97. The fold change (FC) [22] was 4.17, the inhibition [23] was “Active” and the inhibition [24] was “Active”. It also gave a fold change (FC) [25] of 2.55.
